Results on four molecules are retold here after patent publication US9795672B2, “Treatment with anti-VEGF antibodies” (Genentech, Inc., priority 2003, dated 2017).

Marks after values point to notes of the source that are not given here.

Data set [1] deals with metastatic colorectal cancer. The experiment in a line: Phase III randomized trial, bevacizumab added to bolus IFL, first-line: efficacy. Format: in vivo, human. The note with it: for Overall response rate: complete and partial responses, RECIST; for Median duration of response: in vivo; for Progression-free survival: median; for Median survival: overall survival, primary end point, bevacizumab 5 mg/kg every 2 wk or placebo with IFL. The source says: The trial enrolled over 900 patients with histologically confirmed, previously untreated, bi-dimensionally measurable metastatic colorectal cancer.
Eligible patients had histologically confirmed metastatic colorectal carcinoma, with bidimensionally measurable disease. Other inclusion criteria included an age of at least 18 years, an Eastern Cooperative Oncology Group (ECOG) performance status of 0 or 1 (Oken et al. (1982) Am. J. Clin. Oncol. 5:649-55), a life expectancy of more than three months, and written informed consent. Adequate hematologic, hepatic, and renal function (including urinary excretion of no more than 500 mg of protein per day) was also required.
Exclusion criteria included prior chemotherapy or biologic therapy for metastatic disease (adjuvant or radiosensitizing use of fluoropyrimidines with or without leucovorin or levamisole more than 12 months before study entry was permitted), receipt of radiotherapy within 14 days before the initiation of study treatment, major surgery within 28 days before the initiation of study treatment, clinically significant cardiovascular disease, clinically detectable ascites, pregnancy or lactation, regular use of aspirin (more than 325 mg per day) or other nonsteroidal […] agents, preexisting bleeding diatheses or coagulopathy or the need for full-dose anticoagulation, and known central nervous system metastases.
Eligible patients were assigned to treatment with the use of a dynamic randomization algorithm that was designed to achieve overall balance between groups; randomization was stratified according to study center, baseline ECOG performance status (0 vs. 1), site of primary disease (colon vs. rectum), and number of metastatic sites (one vs. more than one).
Tumor responses and progression were determined with the use of the Response Evaluation Criteria in Solid Tumors. Therasse et al. (2000) J. Natl. Cancer Inst. 92:205-16. […] No crossovers were allowed in the group given IFL plus placebo.
Bevacizumab (or placebo) was administered concomitantly with chemotherapy. […] Standard intracycle and intercycle dose modifications of irinotecan and fluorouracil (according to the package insert)’ were permitted in patients with treatment-related adverse events. The doses of leucovorin and bevacizumab were not altered.
After the baseline evaluation, tumor status was assessed every 6 weeks for the first 24 weeks of the study and then every 12 weeks for the remainder of therapy. All complete and partial responses required confirmation at least four weeks after they were first noted.
The primary outcome measure was the duration of overall survival; survival was measured without regard to subsequent treatments. There was no crossover between groups, however. Survival analysis techniques such as the Kaplan-Meier method, log-rank test, and Cox proportional hazards model were used. Secondary outcome measures were progression-free survival, objective response rates (complete and partial responses), the duration of responses, and the quality of life.
For patients who were alive at the time of analysis, data on survival were censored at the time of the last contact. […] For patients without disease progression at the time of the final analysis, data on progression-free survival were censored at the last assessment of tumor status or on day 0 if no further assessment was performed after baseline. Patients without adequate follow-up data were categorized as having no response.
All calculations were performed with the log-rank test and involved two-sided P values, with an alpha value of 0.05, a statistical power of 80 percent, and one interim analysis of efficacy.
(§1) Efficacy analyses were performed according to the intention-to-treat principle. Safety analyses included all patients who received at least one dose of study medication.

For data set [2], the system named is metastatic colorectal cancer. As to the kind of experiment: Phase II randomized trial, bevacizumab added to bolus 5-FU/LV, first-line, non-optimal candidates for irinotecan: efficacy and quality of life. It counts as in vivo, human. The source says: Patients with histologically confirmed, previously untreated, measurable metastatic colorectal cancer were eligible if, in the judgment of the investigator, they were not optimal candidates for first-line irinotecan-containing therapy and had at least one of the following characteristics: age above 65 years, ECOG PS of 1 or 2, serum albumin equal or less than 3.5 g/dL, or prior radiotherapy to abdomen or pelvis. […] All patients provided written informed consent for their participation.
A dynamic randomization algorithm was utilized to achieve balance overall and within each of the following categories: study center, baseline ECOG performance status (0 vs. ≧1), site of primary disease (colon vs. rectum), and number of metastatic sites (1 vs. >1). The 5-FU/LV treatment, comprising LV 500 mg/m^2 over 2 hours and 5-FU 500 mg/m^2 as a bolus midway through the LV infusion (Roswell Park regimen; Petrelli et al. (1989) J. Clin. Oncol. 7:1419-1426), was administered weekly for the first 6 weeks of each 8-week cycle. Chemotherapy was continued until study completion (96 weeks) or disease progression. […] At the time of disease progression, patients were unblinded to their treatment assignment and could receive any second-line treatment at the discretion of the investigator. […] After completing the study, patients were followed for any subsequent treatment and survival every 4 months until death, loss to follow-up, or termination of the study.
Patients underwent an assessment of tumor status at baseline and at completion of every 8-week cycle using appropriate radiographic techniques, typically spiral CT scanning. Tumor response, or progression, was determined by both the investigator and an independent radiology facility (IRF) utilizing the Response Evaluation Criteria in Solid Tumors. Therasse et al. (2000). The IRF assessment was performed without knowledge of the treatment assignment or investigator assessment. In addition, patients completed the Functional Assessment of Cancer Therapy—Colorectal (FACT-C), Version 4, a validated instrument for assessing quality of life (QOL) in colorectal cancer patients, at baseline and prior to each treatment cycle until disease progression. Ward et al. (1999) Qual. Life Res. 8:181-195.
The primary outcome measure was duration of overall survival. Secondary outcome measures included progression-free survival, objective response rate (complete and partial), response duration, and change in the FACT-C QOL score. Survival duration was defined as the time from randomization to death. For patients alive at the time of analysis, duration of survival was censored at the date of last contact. Progression-free survival was defined as the time from randomization to the earlier of disease progression or death on study, defined as death from any cause within 30 days of the last dose of study drug or chemotherapy. For patients alive without disease progression at the time of analysis, progression-free survival was censored at their last tumor assessment, or day 1 (the first day of study treatment) if no postbaseline assessment was performed. In the analysis of objective response, patients without tumor assessments were categorized as nonresponders. Disease progression and response analyses were based on the IRF assessments. Change in quality of life was analyzed as time to deterioration in QOL (TDQ), defined as the length of time from randomization to a the earliest of a ≧3-point decrease from baseline in colon-cancer specific FACT-C subscale score (CCS), disease progression, or death on study. TDQ was also determined for the TOI-C (sum of CCS, physical and functional well-being) and total FACT-C for changes from baseline of 7 and 9 points, respectively.
A two-tailed, log-rank test at the 0.05 level of significance with 80% power and two interim analyses were assumed in the calculations. Interim analyses were conducted by an unblinded, independent Data Monitoring Committee (DMC).

The test system of data set [3] is metastatic colorectal cancer. The experiment in a line: Phase II randomized trial, bevacizumab added to bolus 5-FU/LV: safety. It counts as in vivo. On the procedure: Safety was assessed from reports of adverse events, laboratory test results, and vital sign measurements. Adverse events and abnormal laboratory results were categorized using the National Cancer Institute Common Toxicity Criteria (NCI-CTC), Version 2.
A two-tailed, log-rank test at the 0.05 level of significance with 80% power and two interim analyses were assumed in the calculations. Interim analyses were conducted by an unblinded, independent Data Monitoring Committee (DMC). A safety interim analysis was conducted after 44 deaths and a second safety and efficacy interim analysis was conducted after 89 deaths. The interim efficacy analysis was governed by a formal group sequential stopping rule based on an O'Brien-Fleming spending function. Kaplan-Meier methodology was applied to estimate the median survival, progression free survival, and duration of response time for each treatment group. […] A two-sided stratified log rank test was used to compare the two groups. Stratified analyses included baseline ECOG performance status, site of primary disease, and the number of metastatic sites. Objective response rates were compared by the Chi-squared test. As exploratory analyses, the Cox proportional hazards model was used to estimate the effect of risk factors on modifications of treatment effect for duration of survival and progression-free survival. Efficacy analyses were performed on the intent-to-treat population, defined as all randomized patients. Safety analyses included all patients who received at least one dose of study drug.

A further data set concerns CRC. The following applies: retrospective subset analysis; cited from earlier work.
The test system of data set [4] is metastatic colorectal cancer. As to the kind of experiment: Phase III randomized trial, bevacizumab added to bolus IFL: safety (adverse events, NCI Common Toxicity Criteria v2). Format: in vivo. On the procedure: Safety was assessed on the basis of reports of adverse events, laboratory-test results, and vital sign measurements. Adverse events were categorized according to the Common Toxicity Criteria of the National Cancer Institute, version 2, in which a grade of 1 indicates mild adverse events, a grade of 2 moderate adverse events, a grade of 3 […] adverse events, and a grade of 4 life-threatening adverse events.
as §1

Data set [5] concerns metastatic colorectal cancer. The note with it: patients who progressed following 5-FU therapy; cited from earlier work.
Setting [6] is: addition of bevacizumab compared with 5-FU/LV alone.

As for “bevacizumab: recombinant humanized anti-VEGF monoclonal antibody generated according to Presta et al. (1997)”, the “Increase in the median duration of survival attributable to bevacizumab” value in data set [1] (IFL plus bevacizumab vs IFL plus placebo) came out at 4.7 months. Besides, in data set [1], the Overall response rate is listed as 44.8% and the “Median duration of response” value was found to be 10.4 mo. In data set [1] (intention-to-treat), this molecule had a Progression-free survival of 10.6 mo and a Median survival of 20.3 mo. In data set [2] (FACT-C), the “Effect on quality of life” value is “no detrimental effect”. Besides, in data set [2] (setting [6]), the “Prolongation of median survival” value amounted to 3.7 months, the “Prolongation of progression-free survival” value is given as 3.7 months and the “Prolongation of response duration” value is 2.4 months.
“5-FU/LV/Bevacizumab: 5-fluorouracil and leucovorin (Roswell Park regimen) given with bevacizumab 5 mg/kg every 2 weeks”: the “Median time to deterioration in QOL (TDQ), CCS score” value in data set [2] (FACT-C colon-cancer specific subscale) came to 3.1 months. In addition, in data set [2] (IRF assessment), the Overall response rate is on record as 26.0%. In data set [2] (median), this molecule came in with a Duration of response of 9.2 months. Also, the Progression-free survival in data set [2] (median, IRF assessment) was found to be 9.2 months. Further, the Median survival in data set [2] (overall survival, primary endpoint, intent-to-treat, bevacizumab 5 mg/kg every 2 weeks or placebo with 5-FU/LV (Roswell Park)) was 16.6 months. Moreover, in data set [2] (part of overall response rate), the Complete response is 0% and the Partial response was found to be 26.0%. In data set [2] (secondary TDQ measure), the “Median TDQ, TOI-C” value is 3.2 months and the “Median TDQ, total FACT-C” value was determined as 3.6 months. Moreover, in data set [3] (in vivo), the 60-day all-cause mortality was found to be 5.0%; the “Arterial thrombotic events, number of patients” value amounted to 10 patients; the “Bowel perforation event, number of patients” value is given as “Two”; the “Incidence of arterial thrombotic events” value amounted to 10%. Also, the “Proteinuria of any grade” value in data set [3] (in vivo) came to 38%. Also, the “Total grade 3 and 4 toxicities” value in data set [3] (safety population) is given as 87%. Moreover, in the data set on CRC, the “Median survival, subset aged ≧65 years” value was 17.7 months; the “Median survival, subset with baseline PS 1 or 2” value was 15.2 months; the “Median survival, subset with serum albumin<3.5” value is given as 14.1 months.
Take “IFL plus Bevacizumab: regimen of irinotecan, fluorouracil and leucovorin (IFL) given with bevacizumab 5 mg/kg every 2 wk”: the “Absolute improvement in the response rate” value in data set [1] (IFL plus bevacizumab vs IFL alone) was found to be 10%. Besides, the “Reduction in the risk of death” value in data set [1] (bevacizumab group vs IFL plus placebo) is listed as 34%. Also, in data set [1], the Overall response rate came out at 44.8% and the “Median duration of response” value was 10.4 mo. In data set [1] (intention-to-treat), this molecule came in with an One-year survival rate of 74.3%, a Progression-free survival of 10.6 mo and a Median survival of 20.3 mo. In addition, in data set [1] (part of overall response rate), the Complete response was 3.7% and the Partial response is listed as 41.0%. Also, the “Median duration of overall survival, subgroup with second-line oxaliplatin” value in data set [1] (patients who received second-line treatment with oxaliplatin) was 25.1 months. Moreover, in data set [4] (in vivo), the “Adverse event leading to hospitalization” value is listed as 44.9%, the “Any grade 3 or 4 adverse event” value was 84.9** percent, the Any thrombotic event is on record as 19.4% and the “Cases of grade 4 bleeding” value is reported as “three”. In data set [4] (in vivo), the Deep thrombophletitis is recorded as 8.9%; the Gastrointestinal perforation is listed as 1.5%; the “Gastrointestinal perforation, number of patients” value is on record as “six”; the “Grade 3 or 4 bleeding” value was 3.1%. For the same molecule, in data set [4] (in vivo), the “Grade 3 or 4 leukopenia” value is listed as 37.0%; the “Hypertension, Any” value is reported as 22.4** percent; the “Incidence of arterial thrombotic events” value was determined as 3.3%; the “Proteinuria, Any” value was 26.5%. For the same molecule, in data set [4] (in vivo), the “Proteinuria, Grade 2” value amounted to 3.1%; the “Proteinuria, Grade 3” value was 0.8%; the Pulmonary embolus is on record as 3.6%. Further, in data set [4] (incidence), the “Adverse event leading to death” value is reported as 2.6% and the “Death within 60 days” value came to 3.0%.
On to `CCc1c2c(nc3ccc(OC(=O)N4CCC(N5CCCCC5)CC4)cc13)-c1cc3c(c(=O)n1C2)COC(=O)[C@]3(O)CC` [irinotecan], for which, in data set [5], the “Prolongation of survival vs best supportive care” value is listed as 2.8 month and the “Prolongation of survival vs infusional 5-FU” value is reported as 2.2 month.
